{"source": "patent US20250381195A1", "about": "“Methods of Treating Diabetic Macular Edema” (UNM Rainforest Innovations, priority 2024, published 2025)", "note": "Structures can show the parent of a compound that is named as a salt.", "data": [{"tested_on": "HRECs treated with VEGF (human retinal endothelial cells)", "test": "in vitro permeability / Electrical Cell-Substrate Impedance Sensing (ECIS) assay", "type": "cell-based", "settings": "50 ng/ml Rec. VEGF, compounds at 10 uM, resistance calculated at the end of 24 hrs", "protocol": "The 250-um diameter gold electrode measures the ion current in the cell layer and measures the resistance and how the barrier function is altered with VEGF and drug treatment.\nThe inventors used the Prestwick chemical library compounds, which consists of a total of 1520 library compounds to check their effectiveness to decrease permeability in HRECs treated with VEGF (FIG. 4). […] The in vitro permeability or Electrical Cell-Substrate Impedance Sensing (ECIS) assay was carried out using Applied biophysics Z theta instrument, using 96W10idf PET plates. The HRECs were first seeded on the plates and the cells were allowed to grow until the desired resistance was achieved (800-1200V), this usually takes 15-18 hrs. After that the cells were treated with 50 ng/ml Rec. VEGF and the compounds at 10 uM concentration. At the end of 24 hrs, the resistance was calculated (an increase in resistance implies decreased permeability).", "values": [{"smiles": "N#Cc1ccc(Oc2ccc3c(c2)COB3O)cc1", "note": "[Crisaborole, crisaborole]", "resistance of EC layer (an increase in resistance implies decreased permeability)": "significant increase in resistance"}, {"smiles": "CNCCCN1c2ccccc2CCc2ccccc21", "note": "[Desipramine HCl, desipramine]", "resistance of EC layer (an increase in resistance implies decreased permeability)": "significant increase in resistance"}, {"smiles": "OC[C@H]1O[C@@H](c2ccc(Cl)c(Cc3ccc(O[C@H]4CCOC4)cc3)c2)[C@H](O)[C@@H](O)[C@@H]1O", "note": "[Empaglifozin, empagliflozin]", "resistance of EC layer (an increase in resistance implies decreased permeability)": "significant increase in resistance"}, {"smiles": "CN(C)CCN(Cc1cccs1)c1ccccn1", "note": "[Methapyrilene, methapyrilene]", "resistance of EC layer (an increase in resistance implies decreased permeability)": "increased resistance"}, {"smiles": "c1ccc2c(CC3=NCCN3)cccc2c1", "note": "[Naphazoline HCl, naphazoline]", "resistance of EC layer (an increase in resistance implies decreased permeability)": "increased resistance"}, {"smiles": "O=[N+]([O-])c1ccc(O)c2ncccc12", "note": "[Nitroxolone, nitroxolone]", "resistance of EC layer (an increase in resistance implies decreased permeability)": "significant increase in resistance"}, {"smiles": "Cc1ccc(N(CC2=NCCN2)c2cccc(O)c2)cc1", "note": "[Phentolamine, phentolamine]", "resistance of EC layer (an increase in resistance implies decreased permeability)": "increased resistance"}, {"smiles": "CNCCCC1c2ccccc2C=Cc2ccccc21", "note": "[Protriptyline HCl, protriptyline]", "resistance of EC layer (an increase in resistance implies decreased permeability)": "significant increase in resistance"}, {"smiles": "Cc1noc(NS(=O)(=O)c2ccc(N)cc2)c1C", "note": "[Sulfisoxazole, sulfisoxazole]", "resistance of EC layer (an increase in resistance implies decreased permeability)": "increased resistance"}, {"smiles": "CC(C(=O)O)c1ccc(C(=O)c2cccs2)cc1", "note": "(stereo not shown) [Suprofen, suprofen]", "resistance of EC layer (an increase in resistance implies decreased permeability)": "increased resistance"}]}]}
